Laboratory results from patent publication US20190343749A1, “PROTECTANTS” (Lincoln Manufacturing Inc., priority 2018, published 2019).

System: mixture of bacteria
Test: CTFA Preservative Challenge Test on a shampoo
Assay type: cell-based
Conditions: for Mixed Bacteria Day 7 Count / Mixed Bacteria Day 14 Count: shampoo containing the sample, initial count 4×10^6 cfu/mL; for kill reduction: shampoo, mixed bacteria
Method: The CTFA Preservative Challenge Test was performed on a shampoo containing the samples below against a mixture of bacteria having an initial count of 4×10^6 cfu/mL. The shampoos inoculated with bacteria were allowed to stand for 7 or 14 days. The samples were evaluated for surviving organisms on day 7 or day 14 for bacteria-innoculated shampoos.
E. Kull et al., “Mixtures of Quaternary Ammonium Compounds and Long-chain Fatty Acids as Antifungal Agents”, Applied Microbiology, 9:538-541 (1961). The synergism value (QA/Qa+QB/Qb) was determined. […] Qb is the concentration of pircotine olamine alone (in percent by weight) required to yield 100% retardation of the bacteria. When the value of (QA/Qa +QB/Qb) is less than one, the mixture is synergistic. Values for (QA/Qa+QB/Qb) of 1 and greater represent an additive effect and an antagonistic effect, respectively.

Row | Structure (SMILES) | concentration alone required to yield 100% retardation of the bacteria (Qa, Qb) (percent by weight in shampoo, plate count <10 cfu/g after 14 days) [%] | Mixed Bacteria Day 7 Count (day 7) | Mixed Bacteria Day 14 Count (day 14) | kill reduction (day 7) | kill reduction (day 14)
1 | Cc1cc(CC(C)CC(C)(C)C)n(O)c(=O)c1.NCCO (centres unmarked) [0.1% Piroctone olamine, piroctone olamine] | > 0.1 | 1.2 × 10^5 cfu/mL | 1.3 × 10^5 cfu/mL | (<97% kill reduction) | (<97% kill reduction)
2 | CCCCCCCCCCCCCCCC[n+]1ccccc1 [1% cetylpyridinium chloride, cetylpyridinium chloride] | – | – | 7 × 10^3 cfu/mL | – | –
3 | COc1ccc(C(=O)[O-])cc1.[Na+] [1% sodium p-anisate, sodium p-anisate] | – | 2.3 × 10^4 cfu/mL | – | (<99% kill reduction) | –
